Laboratory results published in the NIST ThermoML archive (doi:10.1021/acs.jced.8b00583).
± gives the expanded uncertainty stated by the source.

Conditions: for electrical conductivity / viscosity / mass density: 100 kPa; for electrical conductivity / viscosity / mass density / surface tension liquid-gas: Liquid; for electrical conductivity: Alternating current cell with electrodes; for viscosity: Capillary tube (Ostwald / Ubbelohde) method; for mass density: Vibrating tube method; for surface tension liquid-gas: Maximal bubble pressure; for Glass transition temperature: DSC

Row | SMILES | electrical conductivity (293.15 K) [S/m] | viscosity (293.15 K) [mPa·s] | mass density (293.15 K) [kg/m3] | surface tension liquid-gas (293.15 K) [mN/m] | electrical conductivity (298.15 K) [S/m] | viscosity (298.15 K) [mPa·s] | mass density (298.15 K) [kg/m3] | surface tension liquid-gas (298.15 K) [mN/m] | electrical conductivity (303.15 K) [S/m] | viscosity (303.15 K) [mPa·s] | mass density (303.15 K) [kg/m3] | surface tension liquid-gas (303.15 K) [mN/m] | electrical conductivity (308.15 K) [S/m] | viscosity (308.15 K) [mPa·s] | mass density (308.15 K) [kg/m3] | surface tension liquid-gas (308.15 K) [mN/m] | electrical conductivity (313.15 K) [S/m] | viscosity (313.15 K) [mPa·s] | mass density (313.15 K) [kg/m3] | surface tension liquid-gas (313.15 K) [mN/m] | other results
1 | CCCC[NH3+].O=C[O-] [butylammonium formate] | 0.287 ± 0.029 | 160.19 ± 16 | 976.96 ± 2 | 33.8 ± 0.3 | 0.332 ± 0.033 | 120.82 ± 12 | 973.8 ± 2 | 33.3 ± 0.3 | 0.384 ± 0.038 | 92.68 ± 9.3 | 970.66 ± 1.9 | 32.9 ± 0.3 | 0.443 ± 0.044 | 72.01 ± 7.2 | 967.48 ± 1.9 | 32.4 ± 0.3 | 0.511 ± 0.051 | 57.07 ± 5.7 | 964.4 ± 1.9 | 32 ± 0.3 | electrical conductivity (318.15 K): 0.588 ± 0.059 S/m; viscosity (318.15 K): 45.61 ± 4.6 mPa·s; mass density (318.15 K): 961.21 ± 1.9 kg/m3; surface tension liquid-gas (318.15 K): 31.5 ± 0.3 mN/m; electrical conductivity (323.15 K): 0.67 ± 0.07 S/m; viscosity (323.15 K): 37.22 ± 3.7 mPa·s; mass density (323.15 K): 958.02 ± 1.9 kg/m3; surface tension liquid-gas (323.15 K): 31.1 ± 0.3 mN/m; electrical conductivity (328.15 K): 0.761 ± 0.076 S/m; viscosity (328.15 K): 30.62 ± 3.1 mPa·s; mass density (328.15 K): 954.95 ± 1.9 kg/m3; surface tension liquid-gas (328.15 K): 30.6 ± 0.3 mN/m; electrical conductivity (333.15 K): 0.873 ± 0.087 S/m; viscosity (333.15 K): 25.39 ± 2.5 mPa·s; mass density (333.15 K): 951.82 ± 1.9 kg/m3; surface tension liquid-gas (333.15 K): 30.2 ± 0.3 mN/m; Glass transition temperature: -108.50 ± 2.1 °C
2 | CCCC(=O)[O-].CCCC[NH3+] [n-butylammonium butanoate] | 0.031 ± 0.003 | 1112 ± 120 | 907.81 ± 1.8 | 25.7 ± 0.3 | 0.038 ± 0.004 | 812.6 ± 89 | 904.94 ± 1.8 | 25.4 ± 0.3 | 0.047 ± 0.005 | 599.38 ± 64 | 902.06 ± 1.8 | 25.1 ± 0.3 | 0.059 ± 0.006 | 448.37 ± 47 | 899.18 ± 1.8 | 24.8 ± 0.3 | 0.073 ± 0.007 | 338.47 ± 35 | 896.28 ± 1.8 | 24.5 ± 0.3 | electrical conductivity (318.15 K): 0.089 ± 0.009 S/m; viscosity (318.15 K): 262.05 ± 27 mPa·s; mass density (318.15 K): 893.32 ± 1.8 kg/m3; surface tension liquid-gas (318.15 K): 24.2 ± 0.3 mN/m; electrical conductivity (323.15 K): 0.109 ± 0.011 S/m; viscosity (323.15 K): 199.16 ± 20 mPa·s; mass density (323.15 K): 890.57 ± 1.8 kg/m3; surface tension liquid-gas (323.15 K): 23.9 ± 0.3 mN/m; electrical conductivity (328.15 K): 0.132 ± 0.013 S/m; viscosity (328.15 K): 154.43 ± 16 mPa·s; mass density (328.15 K): 887.56 ± 1.8 kg/m3; surface tension liquid-gas (328.15 K): 23.6 ± 0.3 mN/m; electrical conductivity (333.15 K): 0.159 ± 0.016 S/m; viscosity (333.15 K): 126.18 ± 13 mPa·s; mass density (333.15 K): 884.61 ± 1.8 kg/m3; surface tension liquid-gas (333.15 K): 23.4 ± 0.3 mN/m; Glass transition temperature: -81.80 ± 2.1 °C
3 | CC(=O)O.CCCCN [butylammonium acetate] | 0.051 ± 0.005 | 771.6 ± 84 | 959.02 ± 1.9 | 31.5 ± 0.3 | 0.065 ± 0.007 | 546.33 ± 58 | 955.95 ± 1.9 | 31.1 ± 0.3 | 0.082 ± 0.008 | 397.17 ± 42 | 952.87 ± 1.9 | 30.8 ± 0.3 | 0.103 ± 0.01 | 294.59 ± 31 | 949.87 ± 1.9 | 30.5 ± 0.3 | 0.128 ± 0.013 | 222.26 ± 23 | 946.81 ± 1.9 | 30.1 ± 0.3 | electrical conductivity (318.15 K): 0.159 ± 0.016 S/m; viscosity (318.15 K): 163.91 ± 17 mPa·s; mass density (318.15 K): 943.73 ± 1.9 kg/m3; surface tension liquid-gas (318.15 K): 29.8 ± 0.3 mN/m; electrical conductivity (323.15 K): 0.197 ± 0.02 S/m; viscosity (323.15 K): 126.15 ± 13 mPa·s; mass density (323.15 K): 940.83 ± 1.9 kg/m3; surface tension liquid-gas (323.15 K): 29.5 ± 0.3 mN/m; electrical conductivity (328.15 K): 0.244 ± 0.024 S/m; viscosity (328.15 K): 95.03 ± 9.6 mPa·s; mass density (328.15 K): 937.8 ± 1.9 kg/m3; surface tension liquid-gas (328.15 K): 29.1 ± 0.3 mN/m; electrical conductivity (333.15 K): 0.299 ± 0.03 S/m; viscosity (333.15 K): 77.93 ± 7.8 mPa·s; mass density (333.15 K): 934.68 ± 1.9 kg/m3; surface tension liquid-gas (333.15 K): 28.8 ± 0.3 mN/m; Glass transition temperature: -98.90 ± 2.1 °C
4 | CCC(=O)[O-].CCCC[NH3+] [butylammonium propanoate] | 0.049 ± 0.005 | 916.56 ± 100 | 933.95 ± 1.9 | 28.1 ± 0.3 | 0.06 ± 0.006 | 669.24 ± 72 | 930.84 ± 1.9 | 27.8 ± 0.3 | 0.074 ± 0.007 | 494.64 ± 53 | 927.79 ± 1.9 | 27.5 ± 0.3 | 0.091 ± 0.009 | 371.06 ± 39 | 924.86 ± 1.9 | 27.1 ± 0.3 | 0.111 ± 0.011 | 280.47 ± 29 | 921.76 ± 1.9 | 26.8 ± 0.3 | electrical conductivity (318.15 K): 0.135 ± 0.014 S/m; viscosity (318.15 K): 211.76 ± 22 mPa·s; mass density (318.15 K): 918.77 ± 1.9 kg/m3; surface tension liquid-gas (318.15 K): 26.5 ± 0.3 mN/m; electrical conductivity (323.15 K): 0.164 ± 0.016 S/m; viscosity (323.15 K): 162.68 ± 17 mPa·s; mass density (323.15 K): 915.69 ± 1.8 kg/m3; surface tension liquid-gas (323.15 K): 26.2 ± 0.3 mN/m; electrical conductivity (328.15 K): 0.196 ± 0.02 S/m; viscosity (328.15 K): 128.4 ± 13 mPa·s; mass density (328.15 K): 912.7 ± 1.8 kg/m3; surface tension liquid-gas (328.15 K): 25.9 ± 0.3 mN/m; electrical conductivity (333.15 K): 0.234 ± 0.023 S/m; viscosity (333.15 K): 99.35 ± 10 mPa·s; mass density (333.15 K): 909.66 ± 1.8 kg/m3; surface tension liquid-gas (333.15 K): 25.6 ± 0.3 mN/m; Glass transition temperature: -89.40 ± 2.1 °C
